{"source": "patent US20040266732A1", "about": "“Therapeutic agents, methods, and treatments” (priority 2002, published 2004)", "test_in_all_cases": "NCI 60 cell-line test", "assay_type_in_all_cases": "cell-based, human", "key": {"COLO 205": {"system": "COLO 205", "settings": "COLO 205 (Colon Cancer)", "procedure,_shortened": "(§1)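 Growth inhibition over a 48 h continuous exposure was estimated by SRB protein assay in RPMI 1640 with 5% fetal bovine serum. A time-zero fixed plate allowed the net growth inhibition and cell-kill parameters to be calculated.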"}, "HOP-62": {"system": "HOP-62", "settings": "HOP-62 (Non-Small Cell Lung Cancer)", "procedure,_shortened": "as §1"}, "LOX IMVI": {"system": "LOX IMVI", "settings": "LOX IMVI (Melanoma)", "procedure,_shortened": "as §1"}, "IGROV1": {"system": "IGROV1", "settings": "IGROV1 (Ovarian Cancer)", "procedure,_shortened": "as §1"}, "HCT-116": {"system": "HCT-116", "settings": "HCT-116 (Colon Cancer)", "procedure,_shortened": "as §1"}, "NCI-H460": {"system": "NCI-H460", "settings": "NCI-H460 (Non-Small Cell Lung Cancer)", "procedure,_shortened": "as §1"}, "CCRF-CEM": {"system": "CCRF-CEM", "settings": "CCRF-CEM (Leukemia)", "procedure,_shortened": "as §1"}, "MOLT-4": {"system": "MOLT-4", "settings": "MOLT-4 (Leukemia)", "procedure,_shortened": "as §1"}, "NCI-H23": {"system": "NCI-H23", "settings": "NCI-H23 (Non-Small Cell Lung Cancer)", "procedure,_shortened": "as §1"}, "SR": {"system": "SR", "settings": "SR (Leukemia)", "procedure,_shortened": "as §1"}, "SNB-75": {"system": "SNB-75", "settings": "SNB-75 (CNS Cancer)", "procedure,_shortened": "as §1"}, "SN12C": {"system": "SN12C", "settings": "SN12C (Renal Cancer)", "procedure,_shortened": "as §1"}, "PC-3": {"system": "PC-3", "settings": "PC-3 (Prostate Cancer)", "procedure,_shortened": "as §1"}, "TK-10": {"system": "TK-10", "settings": "TK-10 (Renal Cancer)", "procedure,_shortened": "as §1"}, "[1]": {"settings": "read-out: LC50 (the source's name)"}}}
{"smiles": "CC1(C)C2CC[C@@]1(CS(=O)(=O)N(C1CCCCC1)C1CCCCC1)C(O)C2", "note": "(some centres unmarked) [MT103]", "values": [{"measurement": "TGI", "setting": "COLO 205", "result": "4.98E−05"}, {"measurement": "IC50", "setting": "COLO 205; read-out: G150", "result": 21.3, "unit": "µM"}, {"measurement": "CC50", "setting": "COLO 205; [1]", "result": "> 100", "unit": "µM"}, {"measurement": "TGI", "setting": "HOP-62", "result": ">1.00E−04"}, {"measurement": "IC50", "setting": "HOP-62; read-out: G150", "result": 57.5, "unit": "µM"}, {"measurement": "CC50", "setting": "HOP-62; [1]", "result": "> 100", "unit": "µM"}, {"measurement": "TGI", "setting": "LOX IMVI", "result": "3.95E−05"}, {"measurement": "IC50", "setting": "LOX IMVI; read-out: G150", "result": 19, "unit": "µM"}, {"measurement": "CC50", "setting": "LOX IMVI; [1]", "result": 82.3, "unit": "µM"}, {"measurement": "TGI", "setting": "IGROV1", "result": ">1.00E−04"}, {"measurement": "IC50", "setting": "IGROV1; read-out: G150", "result": 34.8, "unit": "µM"}, {"measurement": "CC50", "setting": "IGROV1; [1]", "result": "> 100", "unit": "µM"}, {"measurement": "TGI", "setting": "HCT-116", "result": ">1.00E−04"}, {"measurement": "IC50", "setting": "HCT-116; read-out: G150", "result": 43.8, "unit": "µM"}, {"measurement": "CC50", "setting": "HCT-116; [1]", "result": "> 100", "unit": "µM"}, {"measurement": "TGI", "setting": "NCI-H460", "result": ">1.00E−04"}, {"measurement": "IC50", "setting": "NCI-H460; read-out: G150", "result": 30.9, "unit": "µM"}, {"measurement": "CC50", "setting": "NCI-H460; [1]", "result": "> 100", "unit": "µM"}, {"measurement": "TGI", "setting": "CCRF-CEM", "result": ">1.00E−04"}, {"measurement": "IC50", "setting": "CCRF-CEM; read-out: G150", "result": 29.7, "unit": "µM"}, {"measurement": "CC50", "setting": "CCRF-CEM; [1]", "result": "> 100", "unit": "µM"}, {"measurement": "TGI", "setting": "MOLT-4", "result": ">1.00E−04"}, {"measurement": "IC50", "setting": "MOLT-4; read-out: G150", "result": 20.6, "unit": "µM"}, {"measurement": "CC50", "setting": "MOLT-4; [1]", "result": "> 100", "unit": "µM"}, {"measurement": "IC50", "setting": "NCI-H23; read-out: G150", "result": 26.9, "unit": "µM"}, {"measurement": "CC50", "setting": "NCI-H23; [1]", "result": "> 100", "unit": "µM"}, {"measurement": "TGI", "setting": "SR", "result": ">1.00E−04"}, {"measurement": "IC50", "setting": "SR; read-out: G150", "result": 23.8, "unit": "µM"}, {"measurement": "CC50", "setting": "SR; [1]", "result": "> 100", "unit": "µM"}, {"measurement": "LC50 (concentration killing 50% of tumour cells)", "setting": "SNB-75", "result": "> 100", "unit": "µM"}, {"measurement": "TGI", "setting": "SNB-75", "result": "8.83E−05"}, {"measurement": "IC50", "setting": "SNB-75; read-out: G150", "result": 19.5, "unit": "µM"}, {"measurement": "TGI", "setting": "SN12C", "result": ">1.00E−04"}, {"measurement": "IC50", "setting": "SN12C; read-out: G150", "result": 33, "unit": "µM"}, {"measurement": "CC50", "setting": "SN12C; [1]", "result": "> 100", "unit": "µM"}, {"measurement": "TGI", "setting": "PC-3", "result": ">1.00E−04"}, {"measurement": "IC50", "setting": "PC-3; read-out: G150", "result": 27.8, "unit": "µM"}, {"measurement": "CC50", "setting": "PC-3; [1]", "result": "> 100", "unit": "µM"}, {"measurement": "TGI", "setting": "TK-10", "result": "9.02E−05"}, {"measurement": "IC50", "setting": "TK-10; read-out: G150", "result": 21.6, "unit": "µM"}, {"measurement": "CC50", "setting": "TK-10; [1]", "result": "> 100", "unit": "µM"}]}
